Data reported in ChEMBL document CHEMBL1201862, “PubChem BioAssay data set” (2004).
Activity calls are given as the source filed them.

Key:
Interleukin-8 = target: T1, Interleukin-8 (Homo sapiens, UniProt P10145); test: Dose Response confirmation of uHTS small molecule hits for cystic fibrosis induced NFkb Inhibitors in a PAF-induced IL8 counterscreen.; type: functional; conditions: read-out: IC50_Mean
T1 sequence (P10145 whole entry): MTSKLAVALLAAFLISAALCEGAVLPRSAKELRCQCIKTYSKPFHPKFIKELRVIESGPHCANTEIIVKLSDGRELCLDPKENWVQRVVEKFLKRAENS

[1] = activation of miR-122 Renilla sensor silencing – cell-based, Huh7 psiCHECK-miR122, Renilla luciferase, cherry-picked, dose response (AID 651956); type: functional;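 note: huh7 hepatoma cells stably carrying a psiCHECK-2 miR-122 sensor plasmid; renilla luciferase signal reporting endogenous miR-122 activity after 48 h compound exposure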
[2] = viability loss in HeLa cells – cytotoxicity control for MgcRacGAP inhibitor project, dose response (AID 624300); type: functional
[3] = Luminescence Cell-Based Dose Retest to Confirm Inhibitors of Cancer Stem Cells. [Related pubchem assays (depositor defined):AID2717, AID2721]; type: functional; conditions: Homo sapiens
Cysteine protease ATG4B = target: T2, Cysteine protease ATG4B (Homo sapiens, UniProt Q9Y4P1); type: functional;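 note: Fluorescence-based dose-response confirmation assay measuring inhibition of ATG4B activity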
T2 sequence (Q9Y4P1 whole entry): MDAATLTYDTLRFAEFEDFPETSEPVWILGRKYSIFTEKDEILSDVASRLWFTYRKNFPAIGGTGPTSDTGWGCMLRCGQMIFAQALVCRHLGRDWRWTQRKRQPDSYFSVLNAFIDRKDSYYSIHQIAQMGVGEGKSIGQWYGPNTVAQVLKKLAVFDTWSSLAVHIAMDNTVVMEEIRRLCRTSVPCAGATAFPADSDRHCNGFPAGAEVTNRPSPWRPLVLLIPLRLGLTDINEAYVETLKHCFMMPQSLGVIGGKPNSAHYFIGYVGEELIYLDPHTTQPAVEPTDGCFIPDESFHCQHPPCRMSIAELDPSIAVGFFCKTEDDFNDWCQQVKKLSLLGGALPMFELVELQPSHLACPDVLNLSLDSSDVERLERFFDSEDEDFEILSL

Phospholipase A2 = Phospholipase A2 (Homo sapiens, UniProt P04054); type: functional;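 note: confirmatory dose-response counterscreen on phospholipase A2, testing hits that came from an ultra-high-throughput screen for ATG4B inhibitors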
Chain of Phospholipase A2 (P04054 whole entry, the tested form may be a part): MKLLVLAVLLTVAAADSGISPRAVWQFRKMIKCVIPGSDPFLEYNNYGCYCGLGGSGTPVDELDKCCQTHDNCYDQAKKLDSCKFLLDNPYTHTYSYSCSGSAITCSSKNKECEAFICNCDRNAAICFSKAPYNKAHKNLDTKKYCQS

[4] = target: T3, RNA-binding protein pos-1 (Caenorhabditis elegans, UniProt G5EF15); test: disruptors of C. elegans POS-1 RNA interaction – biochemical, fluorescence polarization, dose response (AID 1964);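 note: purified POS-1 fused to maltose binding protein made in E. coli; potency of compounds blocking POS-1 binding to fluorescent RNA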
T3 sequence (G5EF15 whole entry): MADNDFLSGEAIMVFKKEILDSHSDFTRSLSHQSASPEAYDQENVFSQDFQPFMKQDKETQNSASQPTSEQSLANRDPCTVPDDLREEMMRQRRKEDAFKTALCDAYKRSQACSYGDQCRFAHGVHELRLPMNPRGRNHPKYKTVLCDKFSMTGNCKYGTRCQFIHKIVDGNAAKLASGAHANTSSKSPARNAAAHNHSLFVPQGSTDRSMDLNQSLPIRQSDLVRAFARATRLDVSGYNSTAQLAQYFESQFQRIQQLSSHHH

[5] = target: T4, Zinc finger protein mex-5 (Caenorhabditis elegans, UniProt Q9XUB2); test: potency of MEX-5 RNA-binding blockers – biochemical, C. elegans, fluorescence polarization, dose response (AID 1960)
T4 sequence (Q9XUB2 whole entry): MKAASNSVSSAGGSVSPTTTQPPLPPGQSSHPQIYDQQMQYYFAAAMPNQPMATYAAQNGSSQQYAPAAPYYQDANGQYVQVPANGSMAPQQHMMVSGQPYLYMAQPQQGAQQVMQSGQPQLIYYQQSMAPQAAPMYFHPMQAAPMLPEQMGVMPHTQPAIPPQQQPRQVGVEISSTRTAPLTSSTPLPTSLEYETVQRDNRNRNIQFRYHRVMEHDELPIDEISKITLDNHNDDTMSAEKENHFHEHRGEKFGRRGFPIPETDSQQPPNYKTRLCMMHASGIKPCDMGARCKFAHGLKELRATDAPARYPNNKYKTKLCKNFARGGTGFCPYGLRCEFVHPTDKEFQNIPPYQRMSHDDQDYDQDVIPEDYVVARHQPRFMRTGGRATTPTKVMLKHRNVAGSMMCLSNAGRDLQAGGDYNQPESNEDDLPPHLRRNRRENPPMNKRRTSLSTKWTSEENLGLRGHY

Genome polyprotein = Genome polyprotein (dengue virus type 2, UniProt P29990); test: flavivirus cap methylation enzyme inhibition – biochemical, confirmation dose response, primary screen (AID 588689); type: functional
Chain of Genome polyprotein (P29990 2492-3391 limits assumed): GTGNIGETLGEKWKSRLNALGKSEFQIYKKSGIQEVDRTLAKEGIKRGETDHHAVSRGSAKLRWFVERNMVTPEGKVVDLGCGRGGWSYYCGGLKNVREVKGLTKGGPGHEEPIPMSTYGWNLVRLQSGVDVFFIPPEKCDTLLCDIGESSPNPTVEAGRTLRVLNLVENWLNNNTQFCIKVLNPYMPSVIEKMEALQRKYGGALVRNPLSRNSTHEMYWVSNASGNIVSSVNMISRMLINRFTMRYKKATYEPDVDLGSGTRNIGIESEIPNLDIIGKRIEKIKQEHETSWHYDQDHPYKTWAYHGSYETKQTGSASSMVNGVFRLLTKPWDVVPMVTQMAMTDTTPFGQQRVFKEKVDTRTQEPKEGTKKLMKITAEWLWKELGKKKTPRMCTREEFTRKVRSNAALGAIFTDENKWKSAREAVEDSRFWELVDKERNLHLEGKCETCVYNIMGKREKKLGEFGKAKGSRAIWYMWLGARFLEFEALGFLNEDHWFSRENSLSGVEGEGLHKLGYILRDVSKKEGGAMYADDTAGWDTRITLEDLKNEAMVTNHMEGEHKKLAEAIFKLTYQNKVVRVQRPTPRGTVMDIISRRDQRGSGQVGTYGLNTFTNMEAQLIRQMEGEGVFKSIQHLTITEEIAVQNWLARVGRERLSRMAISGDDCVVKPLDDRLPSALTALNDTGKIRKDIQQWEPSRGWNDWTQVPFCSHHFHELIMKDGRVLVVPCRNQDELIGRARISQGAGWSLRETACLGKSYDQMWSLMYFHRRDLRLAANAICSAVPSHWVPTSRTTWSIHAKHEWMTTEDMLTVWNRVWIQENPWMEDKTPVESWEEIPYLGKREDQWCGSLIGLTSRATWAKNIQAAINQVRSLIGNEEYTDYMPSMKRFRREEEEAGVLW

[6] = target: T5, Rac GTPase-activating protein 1 (Homo sapiens, UniProt Q9H0H5); test: blockers of MgcRacGAP-driven Rac1 GTP hydrolysis – biochemical, ADP Hunter fluorescence, primary and confirmatory, confirmation (AID 624330); type: functional
T5 sequence (Q9H0H5 whole entry): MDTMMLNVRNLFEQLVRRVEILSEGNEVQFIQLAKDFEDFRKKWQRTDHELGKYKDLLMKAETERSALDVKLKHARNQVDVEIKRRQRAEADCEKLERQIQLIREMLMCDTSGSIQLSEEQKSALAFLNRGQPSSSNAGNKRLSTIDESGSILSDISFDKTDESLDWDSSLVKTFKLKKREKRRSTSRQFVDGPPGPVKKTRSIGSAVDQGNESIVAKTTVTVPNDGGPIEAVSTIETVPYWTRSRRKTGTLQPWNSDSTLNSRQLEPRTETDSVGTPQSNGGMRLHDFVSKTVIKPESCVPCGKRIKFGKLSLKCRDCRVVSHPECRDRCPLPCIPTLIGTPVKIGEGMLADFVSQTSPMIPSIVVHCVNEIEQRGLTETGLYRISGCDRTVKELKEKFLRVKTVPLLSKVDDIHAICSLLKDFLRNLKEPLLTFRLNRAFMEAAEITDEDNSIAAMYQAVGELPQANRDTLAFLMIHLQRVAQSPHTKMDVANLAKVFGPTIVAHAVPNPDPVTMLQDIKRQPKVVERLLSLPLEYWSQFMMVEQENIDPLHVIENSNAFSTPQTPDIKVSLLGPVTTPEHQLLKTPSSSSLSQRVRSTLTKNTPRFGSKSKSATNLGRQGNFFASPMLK

[7] = target: T6, High affinity choline transporter 1 (Homo sapiens, UniProt Q9GZV3); test: human choline transporter blockers, potency – cell-based, 5-point CRC, membrane potential dye, dose response (AID 504840); type: functional
T6 sequence (Q9GZV3 whole entry): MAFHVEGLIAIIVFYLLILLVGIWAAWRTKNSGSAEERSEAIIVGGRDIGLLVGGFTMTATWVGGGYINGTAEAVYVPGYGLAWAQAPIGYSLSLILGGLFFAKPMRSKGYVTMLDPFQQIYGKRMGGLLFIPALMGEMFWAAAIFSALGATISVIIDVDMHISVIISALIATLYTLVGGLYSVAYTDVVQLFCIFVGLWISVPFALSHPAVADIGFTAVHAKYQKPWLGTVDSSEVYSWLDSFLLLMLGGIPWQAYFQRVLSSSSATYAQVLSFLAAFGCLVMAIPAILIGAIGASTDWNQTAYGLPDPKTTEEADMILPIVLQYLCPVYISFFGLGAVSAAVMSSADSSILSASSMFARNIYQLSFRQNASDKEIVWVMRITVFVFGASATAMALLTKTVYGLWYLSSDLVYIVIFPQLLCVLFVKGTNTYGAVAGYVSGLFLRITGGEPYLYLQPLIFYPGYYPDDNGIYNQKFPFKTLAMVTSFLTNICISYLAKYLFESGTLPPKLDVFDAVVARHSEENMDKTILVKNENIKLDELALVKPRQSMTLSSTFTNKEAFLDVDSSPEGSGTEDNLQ

[8] = target: T6, High affinity choline transporter 1; test: human choline transporter blockers, potency – cell-based, 10-point CRC, membrane potential dye, dose response (AID 588401); type: functional;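 note: membrane potential dye fluorescence of choline-evoked depolarization via CHT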
Paired box protein Pax-8 = Paired box protein Pax-8 (Homo sapiens, UniProt Q06710); test: PAX8 transcriptional activity inhibition in RMG-I – RMG-I cells, luciferase, cherry-pick, dose response (AID 687027); type: functional, cell-based;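 note: luciferase reporter driven by Pax8 target thyroperoxidase promoter measured by SteadyGlo luminescence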
Chain of Paired box protein Pax-8 (Q06710 whole entry): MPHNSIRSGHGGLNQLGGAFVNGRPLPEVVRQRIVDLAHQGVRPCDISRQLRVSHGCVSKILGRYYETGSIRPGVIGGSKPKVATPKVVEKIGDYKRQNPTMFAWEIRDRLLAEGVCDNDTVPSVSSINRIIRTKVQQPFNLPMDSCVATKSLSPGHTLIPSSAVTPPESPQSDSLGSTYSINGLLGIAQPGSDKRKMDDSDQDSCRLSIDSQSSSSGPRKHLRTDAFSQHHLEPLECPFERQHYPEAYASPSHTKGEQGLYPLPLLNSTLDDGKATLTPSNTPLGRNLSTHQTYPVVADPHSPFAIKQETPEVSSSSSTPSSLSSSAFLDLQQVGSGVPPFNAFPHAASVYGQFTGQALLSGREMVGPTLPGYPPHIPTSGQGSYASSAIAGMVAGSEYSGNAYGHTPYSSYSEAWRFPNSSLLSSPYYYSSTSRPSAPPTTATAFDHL

[9] = Counterscreen for inhibitors of Trypanosoma brucei methionyl tRNA synthetase (MetRS): Luminescence-based cell-based high throughput dose response assay to identify compounds that are cytotoxic to Jurkat human T lymphocyte cells.; type: functional
CHO = CHO cell viability loss, potency – luminescence, cytotoxicity control for TLR9-MyD88 binding inhibitor project, dose response (AID 588339); type: functional, cell-based, hamster; conditions: Cricetulus griseus;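 note: CHO cells stably coexpressing TLR9 and MyD88 fusions from primary screen; compound exposure lasted 48 hours before viability readout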
[10] = target: Heat shock protein HSP 90-alpha (Homo sapiens, UniProt P07900); type: functional, organism-based
Beta Lactamase = Beta Lactamase (Pseudomonas aeruginosa, UniProt Q932Y6); test: BLA reporter interference, concentration series – BLA reporter cells, FRET fluorescence, artefact control for TLR9-MyD88 binding inhibitor project, dose response (AID 588341); type: cell-based;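 note: cell based assay in CHO-K1 cells stably expressing beta-lactamase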
Chain of Beta Lactamase (Q932Y6 whole entry): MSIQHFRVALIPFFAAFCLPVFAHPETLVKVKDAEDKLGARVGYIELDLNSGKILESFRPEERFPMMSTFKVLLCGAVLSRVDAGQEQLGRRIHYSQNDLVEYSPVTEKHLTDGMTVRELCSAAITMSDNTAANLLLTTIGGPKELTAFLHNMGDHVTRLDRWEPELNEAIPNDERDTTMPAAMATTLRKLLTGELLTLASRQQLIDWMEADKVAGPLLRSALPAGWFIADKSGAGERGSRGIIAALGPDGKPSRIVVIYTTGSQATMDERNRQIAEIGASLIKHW

[11] = viability of uninfected HEp-2 cells – cell-based, HTS, cytotoxicity control for RSV inhibitor project, dose response (AID 2410); type: functional; conditions: human respiratory syncytial virus
[12] = target: T7, DNA repair protein RAD52 homolog (Homo sapiens, UniProt P43351); type: functional, biochemical
T7 sequence (P43351 whole entry): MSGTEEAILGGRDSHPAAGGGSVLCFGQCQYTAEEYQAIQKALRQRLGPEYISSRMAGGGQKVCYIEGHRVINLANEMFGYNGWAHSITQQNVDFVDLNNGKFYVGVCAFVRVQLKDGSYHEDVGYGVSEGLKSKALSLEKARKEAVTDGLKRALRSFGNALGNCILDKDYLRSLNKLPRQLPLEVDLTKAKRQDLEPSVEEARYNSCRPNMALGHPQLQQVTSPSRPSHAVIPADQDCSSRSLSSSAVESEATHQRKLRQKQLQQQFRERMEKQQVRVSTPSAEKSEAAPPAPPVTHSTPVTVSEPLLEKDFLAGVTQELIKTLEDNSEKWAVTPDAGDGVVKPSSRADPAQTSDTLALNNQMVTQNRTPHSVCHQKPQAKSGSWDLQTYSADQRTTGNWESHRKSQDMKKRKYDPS

[13] = target: T8, DNA repair and recombination protein RAD54-like (Homo sapiens, UniProt Q92698); test: RAD54 Holliday junction migration blockers – biochemical, fluorescence, cherry-picked samples, dose series, confirmation (AID 651657); type: functional
T8 sequence (Q92698 whole entry): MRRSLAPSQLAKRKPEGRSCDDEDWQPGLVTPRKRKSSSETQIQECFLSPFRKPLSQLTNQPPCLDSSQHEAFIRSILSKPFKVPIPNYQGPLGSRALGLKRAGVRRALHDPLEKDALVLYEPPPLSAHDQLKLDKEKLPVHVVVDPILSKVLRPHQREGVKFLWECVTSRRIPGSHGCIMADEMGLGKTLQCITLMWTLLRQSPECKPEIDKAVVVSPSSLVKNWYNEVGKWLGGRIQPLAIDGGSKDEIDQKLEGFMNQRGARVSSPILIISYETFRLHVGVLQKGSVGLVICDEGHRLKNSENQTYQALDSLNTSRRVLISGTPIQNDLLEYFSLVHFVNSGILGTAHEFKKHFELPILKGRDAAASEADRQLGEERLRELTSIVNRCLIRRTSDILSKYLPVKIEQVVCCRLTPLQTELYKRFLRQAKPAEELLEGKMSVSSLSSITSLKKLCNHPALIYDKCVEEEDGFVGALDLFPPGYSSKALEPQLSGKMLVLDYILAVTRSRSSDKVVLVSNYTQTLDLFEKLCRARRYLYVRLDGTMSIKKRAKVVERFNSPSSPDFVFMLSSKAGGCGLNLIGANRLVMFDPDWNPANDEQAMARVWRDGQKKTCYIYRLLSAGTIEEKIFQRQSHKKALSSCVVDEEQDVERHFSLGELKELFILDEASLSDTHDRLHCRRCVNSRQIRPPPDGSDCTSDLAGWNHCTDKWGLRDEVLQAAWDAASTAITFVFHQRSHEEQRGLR

[14] = general mammalian cell viability loss – inhibitor set, cherry-pick, set 2, cytotoxicity control for miR-122 modulator project, dose response (AID 720697); type: functional, cell-based
[15] = tested on: Streptococcus sp. 'group A'; test: Streptococcus pyogenes SK(-)GAS viability under kanamycin – luminescence, BacTiterGlo, confirmation, counter-screen for streptokinase expression inhibitor project, dose response (AID 1900); type: functional, organism-based
Streptococcus = test: GAS UMAA2166 growth inhibition – luminescence, BacTiterGlo, counter-screen for streptokinase expression inhibitor project, dose response (AID 1915); type: functional, organism-based;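 note: potency for reduction of bacterial viability or growth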

Cc1nc(N)c(C#N)c(-c2cccnc2)c1-c1ccccc1
IC50 (Interleukin-8): > 79 µM (inactive)

C/C=C/c1ccc2c(c1)O[C@H](CN(C)C(=O)Nc1cccc(F)c1)[C@H](C)CN([C@@H](C)CO)S2(=O)=O
AC50 [1]: 31.9 µM (active)

N#C/C(=C/c1ccc(N2CCOCC2)o1)c1ccc(Cl)cc1
CC50 [2]: 100 µM (active)

O=C(Nc1cccc(Cl)c1N1CCCC1)c1cccc(-c2cc3ccccc3oc2=O)c1
AC50 [3]: 0.262 µM (active)
IC50 (Cysteine protease ATG4B): 0.87 µM (active)
IC50 (Phospholipase A2): 0.978 µM (active)

O=C(O)c1ccccc1-c1ccc(C=C2C(=O)N(c3ccccc3)C(=S)N(c3ccccc3)C2=O)o1
EC50 [4]: > 300 µM (not active)
EC50 [5]: > 300 µM (not active)
IC50 (Genome polyprotein): 12.3 µM (active)
IC50 [6]: 105 µM (active)

C=CC(=O)/N=c1\sc2ccccc2n1-c1ccccc1
IC50 [7]: 4.37 µM (active)
IC50 [8]: 1.78 µM (active)
AC50 (Paired box protein Pax-8): 1.6 µM (active)

COc1ccc(CC(=O)OCC(=O)Nc2ccc(Br)cc2)cc1
IC50 [9]: 83.3 µM (inactive)

Cc1cccc(N2C(=O)/C(=C\c3ccc(OC(F)F)cc3)c3ccccc3C2=O)c1
IC50 (CHO): 40.4 µM (inactive)
AC50 [10]: 4.43 µM (active)
IC50 (Beta Lactamase): 3.9 µM (active)

Cc1ccc(-c2csc(NC(=O)c3ccccc3Cl)c2C(=O)O)cc1
CC50 [11]: 19.4 µM (active)
IC50 [7]: 2.27 µM (active)
IC50 [8]: 1.58 µM (active)

CCCCCCCCCCCCCCCC[N+](C)(C)CCl
IC50 (Cysteine protease ATG4B): 8.42 µM (active)
AC50 [10]: 5.15 µM (active)
IC50 (Phospholipase A2): 8.15 µM (active)
AC50 [12]: 5.5 µM (active)

COc1ccc(CCn2c(=N)c(C(=O)NCCN3CCOCC3)cc3c(=O)n4cccc(C)c4nc32)cc1OC
AC50 [13]: 6.24 µM (active)

CC(C)c1ccc(CNC(=O)CSCC(=O)Nc2ccc3ccccc3c2)cc1
AC50 [14]: 4.3 µM (active)

O=C(N/N=C1/CCC/C1=C(/O)C(F)(F)F)c1ccccc1O
EC50 [15]: 1.44 µM (active)
EC50 (Streptococcus): 2.75 µM (active)
IC50 [7]: 2.27 µM (active)
IC50 [8]: 3.57 µM (active)

O=S(=O)(Nc1nc2ccccc2nc1N1CCc2ccccc2C1)c1ccc(Cl)cc1
IC50 (Cysteine protease ATG4B): 9.18 µM (active)
IC50 (Phospholipase A2): 10 µM (active)

Cc1nccc2c1[nH]c1ccccc12 [HARMAN]
AC50 [13]: 58.4 µM (active)
